Each block holds one molecule with its values, some of them ahead of it.
Key:
[1] = Cytotoxicity against human U87MG cells assessed as inhibition of cell growth after 72 hrs by MTT assay; type: functional, cell-based, U-87MG ATCC; details: U-87 MG
HT-29 = assay: cells; details: Homo sapiens, HT-29, 72 h
cells [2] = details: Homo sapiens, NCI-H460, 72 h
A549 = assay: cells; details: Homo sapiens, A549, 72 h
cells [3] = details: Homo sapiens, MKN-45, 72 h

SMILES: COc1cc2c(Oc3ccc(NC(=O)c4nn(-c5ccc(Cl)cc5)c(=O)cc4C)cc3F)ccnc2cc1OCCCN1CCCC1
IC50 [1]: 1430 nM
IC50 (HT-29): 260 nM
IC50 (cells [2]): 360 nM
IC50 (A549): 230 nM
IC50 (cells [3]): 150 nM

SMILES: COc1ccc(-n2nc(C(=O)Nc3ccc(Oc4ccnc5cc(OCCCN6CCC(C)CC6)c(OC)cc45)c(F)c3)c(C)cc2=O)cc1
IC50 [1]: 2840 nM
IC50 (HT-29): 5450 nM
IC50 (cells [2]): 4650 nM
IC50 (A549): 1100 nM
IC50 (cells [3]): 400 nM

SMILES: COc1cc2c(Oc3ccc(NC(=O)c4nn(-c5cccc(F)c5)c(=O)cc4C)cc3F)ccnc2cc1OCCCN1CCOCC1
IC50 [1]: 1980 nM
IC50 (HT-29): 270 nM
IC50 (cells [2]): 290 nM
IC50 (A549): 550 nM
IC50 (cells [3]): 110 nM

SMILES: COc1cc2c(Oc3ccc(NC(=O)c4nn(-c5ccc(Cl)cc5)c(=O)cc4C)cc3F)ccnc2cc1OCCCN1CCOCC1
IC50 [1]: 1970 nM
IC50 (HT-29): 260 nM
IC50 (cells [2]): 380 nM
IC50 (A549): 330 nM
IC50 (cells [3]): 70 nM

SMILES: COc1cc2c(Oc3ccc(NC(=O)c4nn(-c5ccccc5C)c(=O)cc4C)cc3F)ccnc2cc1OCCCN1CCC(C)CC1
IC50 [1]: 2240 nM
IC50 (HT-29): 2810 nM
IC50 (cells [2]): 2260 nM
IC50 (A549): 1460 nM
IC50 (cells [3]): 1290 nM

SMILES: COc1cc2c(Oc3ccc(NC(=O)c4nn(-c5ccccc5C)c(=O)cc4C)cc3F)ccnc2cc1OCCCN1CCCC1
IC50 [1]: 2960 nM
IC50 (HT-29): 1400 nM
IC50 (cells [2]): 1590 nM
IC50 (A549): 1300 nM
IC50 (cells [3]): 760 nM

SMILES: COc1cc2c(Oc3ccc(NC(=O)c4nn(-c5ccc(Cl)cc5Cl)c(=O)cc4C)cc3F)ccnc2cc1OCCCN1CCCCC1
IC50 [1]: 1800 nM
IC50 (HT-29): 290 nM
IC50 (cells [2]): 390 nM
IC50 (A549): 220 nM
IC50 (cells [3]): 80 nM

SMILES: COc1ccc(-n2nc(C(=O)Nc3ccc(Oc4ccnc5cc(OCCCN6CCCC6)c(OC)cc45)c(F)c3)c(C)cc2=O)cc1
IC50 [1]: 2960 nM
IC50 (HT-29): 3300 nM
IC50 (cells [2]): 3610 nM
IC50 (A549): 2770 nM
IC50 (cells [3]): 1290 nM

SMILES: COc1ccc(-n2nc(C(=O)Nc3ccc(Oc4ccnc5cc(OCCCN6CCN(C)CC6)c(OC)cc45)c(F)c3)c(C)cc2=O)cc1
IC50 (HT-29): 3520 nM
IC50 (cells [2]): 3660 nM
IC50 (A549): 2200 nM
IC50 (cells [3]): 1230 nM

SMILES: COc1ccc(-n2nc(C(=O)Nc3ccc(Oc4ccnc5cc(OCCCN6CCOCC6)c(OC)cc45)c(F)c3)c(C)cc2=O)cc1
IC50 (HT-29): 1230 nM
IC50 (cells [2]): 1770 nM
IC50 (A549): 1500 nM
IC50 (cells [3]): 260 nM

Molecules with a lower IC50 (HT-29), results first:

IC50 (HT-29): 160 nM
IC50 (cells [2]): 280 nM
IC50 (A549): 150 nM
IC50 (cells [3]): 160 nM
SMILES: COc1cc2c(Oc3ccc(NC(=O)c4nn(-c5ccccc5)c(=O)cc4C)cc3F)ccnc2cc1OCCCN1CCCCC1
IC50 [1]: 1370 nM

IC50 (HT-29): 190 nM
IC50 (cells [2]): 230 nM
IC50 (A549): 120 nM
IC50 (cells [3]): 40 nM
SMILES: COc1cc2c(Oc3ccc(NC(=O)c4nn(-c5ccccc5OC(F)(F)F)c(=O)cc4C)cc3F)ccnc2cc1OCCCN1CCCCC1
IC50 [1]: 1300 nM

IC50 (HT-29): 250 nM
IC50 (cells [2]): 290 nM
IC50 (A549): 90 nM
IC50 (cells [3]): 70 nM
SMILES: COc1cc2c(Oc3ccc(NC(=O)c4nn(-c5ccccc5OC(F)(F)F)c(=O)cc4C)cc3F)ccnc2cc1OCCCN1CCC(C)CC1
IC50 [1]: 800 nM

IC50 (HT-29): 170 nM
IC50 (cells [2]): 200 nM
IC50 (A549): 120 nM
IC50 (cells [3]): 90 nM
SMILES: COc1cc2c(Oc3ccc(NC(=O)c4nn(-c5ccccc5OC(F)(F)F)c(=O)cc4C)cc3F)ccnc2cc1OCCCN1CCOCC1
IC50 [1]: 1300 nM

IC50 (HT-29): 170 nM
IC50 (cells [2]): 190 nM
IC50 (A549): 130 nM
IC50 (cells [3]): 120 nM
SMILES: COc1cc2c(Oc3ccc(NC(=O)c4nn(-c5ccc(F)c(F)c5)c(=O)cc4C)cc3F)ccnc2cc1OCCCN1CCN(C)CC1

IC50 (HT-29): 170 nM
IC50 (cells [2]): 250 nM
IC50 (A549): 200 nM
IC50 (cells [3]): 120 nM
SMILES: COc1cc2c(Oc3ccc(NC(=O)c4nn(-c5ccc(Cl)cc5Cl)c(=O)cc4C)cc3F)ccnc2cc1OCCCN1CCC(C)CC1

IC50 (HT-29): 160 nM
IC50 (cells [2]): 390 nM
IC50 (A549): 320 nM
IC50 (cells [3]): 90 nM
SMILES: COc1cc2c(Oc3ccc(NC(=O)c4nn(-c5ccc(F)c(F)c5)c(=O)cc4C)cc3F)ccnc2cc1OCCCN1CCOCC1

Source: ChEMBL document CHEMBL3286137, “Design, synthesis and structure-activity relationships of novel 4-phenoxyquinoline derivatives containing pyridazinone moiety as potential antitumor agents” (Eur J Med Chem, 2014)
